Columns and labels:
Assay type in all cases: in vivo
Kochia (Kochia scoparia) [1] = test: Test A postemergence; settings: postemergence, 0 to 100 scale (0 no effect, 100 complete control)
Outline: (§1)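 In a loam soil and sand blend, planted seeds got a preemergence directed soil spray, and young plants at the one- to two-leaf stage, 2–10 cm high, got a postemergence application; ~10 d greenhouse hold; injury rated visually, 0 = none, 100 = complete control.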

[2] = test system: Galium (catchweed bedstraw, Galium aparine); test: Test A postemergence; settings: postemergence, 0 to 100 scale (0 no effect, 100 complete control)
Outline: as §1

[3] = test system: ragweed (common ragweed, Ambrosia elatior); test: Test A postemergence; settings: postemergence, 0 to 100 scale (0 no effect, 100 complete control)
Outline: as §1

[4] = test system: wheat (Triticum aestivum); test: Test A postemergence; settings: postemergence, 0 to 100 scale (0 no effect, 100 complete control)
Outline: as §1

[5] = test system: giant foxtail (Setaria faberii); test: Test A postemergence; settings: postemergence, 0 to 100 scale (0 no effect, 100 complete control)
Outline: as §1

[6] = test system: pigweed (Amaranthus retroflexus); test: Test A postemergence; settings: postemergence, 0 to 100 scale (0 no effect, 100 complete control)
Outline: as §1

corn (Zea mays) = test: Test A postemergence; settings: postemergence, 0 to 100 scale (0 no effect, 100 complete control)
Outline: as §1

[7] = test system: blackgrass (Alopecurus myosuroides); test: Test A postemergence; settings: postemergence, 0 to 100 scale (0 no effect, 100 complete control)
Outline: as §1

[8] = test system: ryegrass, Italian (Italian ryegrass, Lolium multiflorum); test: Test A postemergence; settings: postemergence, 0 to 100 scale (0 no effect, 100 complete control)
Outline: as §1

[9] = test system: barnyardgrass (Echinochloa crus-galli); test: Test A postemergence; settings: postemergence, 0 to 100 scale (0 no effect, 100 complete control)
Outline: as §1

[10] = test system: sedge, umbrella (small-flower umbrella sedge, Cyperus difformis); test: Test B flooded paddy test; settings: Flood, 250 g ai/ha; scale of 0 to 100 where 0 is no effect and 100 is complete control
Outline: (§2)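 Greenhouse paddy pots with 2-leaf stage plants received compound by direct addition to floodwater 3 cm deep, kept at that level. Scored visually at 13–15 d versus controls (0 no effect; 100 complete control).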

[11] = test system: ducksalad (Heteranthera limosa); test: Test B flooded paddy test; settings: Flood, 250 g ai/ha; 0 to 100 scale where 0 is no effect and 100 is complete control; 13 to 15 d
Outline: as §2

rice (Oryra sativa) = test: Test B flooded paddy test; settings: Flood, 250 g ai/ha; 0 to 100 scale where 0 is no effect and 100 is complete control; 13 to 15 d
Outline: as §2

[12] = test system: barnyardgrass (Echinochloa crus-galli); test: Test B flooded paddy test; settings: Flood, 250 g ai/ha; 0 to 100 scale where 0 is no effect and 100 is complete control; 13 to 15 d
Outline: as §2

Kochia (Kochia scoparia) [13] = test: Test A preemergence
Outline: as §1

[14] = test system: ragweed (common ragweed, Ambrosia elatior); test: Test A preemergence; settings: preemergence
Outline: as §1

[15] = test system: giant foxtail (Setaria faberii); test: Test A preemergence
Outline: as §1

[16] = test system: pigweed (Amaranthus retroflexus); test: Test A preemergence; settings: preemergence
[17] = test system: ryegrass, Italian (Italian ryegrass, Lolium multiflorum); test: Test A preemergence; settings: preemergence
Outline: as §1

[18] = test system: barnyardgrass (Echinochloa crus-galli); test: Test A preemergence
Outline: as §1

[19] = 125 g ai/ha, visual injury after approximately 10 d
[20] = 500 g ai/ha, visual injury, approx. 10 d
[21] = 125 g ai/ha, visual rating after approx. 10 d
[22] = 125 g ai/ha, Preemergence, visual injury after approximately 10 d, 0 to 100 scale where 0 is no effect and 100 is complete control
[23] = 500 g ai/ha, preemergence, 0 to 100 scale, 0 = no effect, 100 = complete control
[24] = 125 g ai/ha, visual rating after approx. 10 d, 0 to 100 scale where 0 is no effect and 100 is complete control
[25] = 500 g ai/ha, 0 to 100 scale, 0 = no effect, 100 = complete control

Structure (SMILES): CN1CC(c2ccc(C(C)(F)F)cc2)C(C(=O)Nc2ccccc2F)C1=O (stereo not drawn) [Compound 691]
- Plant response rating, Kochia (Kochia (Kochia scoparia) [1]; [19]): 70
- Plant response rating, Kochia (Kochia (Kochia scoparia) [1]; [20]): 80
- Plant response rating, Galium [2, 19]: 70
- Plant response rating, Galium [2, 20]: 70
- Plant response rating, Ragweed [3, 19]: 50
- Plant response rating, Ragweed [3, 20]: 60
- Plant response rating, Wheat [4, 19]: 50
- Plant response rating, Wheat [4, 20]: 60
- Plant response rating, Foxtail, Giant [5, 19]: 80
- Plant response rating, Foxtail, Giant [5, 20]: 80
- Plant response rating, Pigweed [6, 19]: 40
- Plant response rating, Pigweed [6, 20]: 70
- Plant response rating, Corn (corn (Zea mays); [19]): 60
- Plant response rating, Corn (corn (Zea mays); [20]): 90
- Plant response rating, Blackgrass [7, 21]: 50
- Plant response rating, Blackgrass [7, 20]: 60
- Plant response rating, Ryegrass, Italian [8, 19]: 50
- Plant response rating, Ryegrass, Italian [8, 20]: 60
- Plant response rating, Barnyardgrass [9, 21]: 80
- Plant response rating, Barnyardgrass [9, 20]: 80
- Sedge, Umbrella plant response rating [10]: 0
- Plant response rating, Ducksalad [11]: 95
- Plant response rating, Rice (rice (Oryra sativa)): 25
- Plant response rating, Barnyardgrass [12]: 70
- Plant response rating, Kochia (Kochia (Kochia scoparia) [13]; [22]): 80
- Plant response rating, Kochia (Kochia (Kochia scoparia) [13]; [23]): 90
- Plant response rating, Ragweed [14, 24]: 60
- Plant response rating, Ragweed [14, 25]: 90
- Plant response rating, Foxtail, Giant [15, 22]: 90
- Plant response rating, Foxtail, Giant [15, 23]: 90
- Plant response rating, Pigweed [16, 24]: 70
- Plant response rating, Pigweed [16, 25]: 80
- Plant response rating, Ryegrass, Italian [17, 24]: 50
- Plant response rating, Ryegrass, Italian [17, 25]: 60
- Plant response rating, Barnyardgrass [18, 22]: 90
- Plant response rating, Barnyardgrass [18, 23]: 90
